In patent US20160355483A1, “COMPOUND BINDING TO PPARG BUT NOT ACTING AS PROMOTER AND PHARMACEUTICAL COMPOSITION FOR TREATING PPARG-RELATED DISEASES CONTAINING SAME AS ACTIVE INGREDIENT” (Hyundai Pharm Co., Ltd., priority 2014, published 2016):
“Also recorded” adds a separate entry of the source.

Legend:
[1] = target: T1, PPARG (peroxisome proliferator activated receptor-gamma), GST-PPARG-LBD (Homo sapiens, UniProt P37231); assay: LanthaScreen TR-FRET PPARG Competitive Binding Assay; parameters: key: “+” indicates the degree of the binding activity, and as the number of “+” increases, the binding activity is stronger; ++: “+” indicates the degree of the binding activity, and as the number of “+” increases, the binding activity is stronger; +++: “+” indicates the degree of the binding activity, and as the number of “+” increases, the binding activity is stronger; ++++: “+” indicates the degree of the binding activity, and as the number of “+” increases, the binding activity is stronger; conditions: degree of binding activity
T1 construct: 15 μL of 5 nM GST-PPARG-LBD and 5 nM Tb-GST-antibody were added; purchased Invitrogen PV4894
T1 sequence (P37231 238-503 limits assumed): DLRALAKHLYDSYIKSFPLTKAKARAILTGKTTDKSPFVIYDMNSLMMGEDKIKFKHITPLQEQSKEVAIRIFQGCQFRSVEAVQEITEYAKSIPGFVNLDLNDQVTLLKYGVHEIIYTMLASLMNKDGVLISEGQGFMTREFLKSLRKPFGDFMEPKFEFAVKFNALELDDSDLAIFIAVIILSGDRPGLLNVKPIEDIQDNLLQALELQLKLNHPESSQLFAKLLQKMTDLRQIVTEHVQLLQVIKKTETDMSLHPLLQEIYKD
Outline: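 GST-tagged human PPARG LBD in a TR-FRET competitive binding kit, 1 h at room temperature. Read-out is the 518/488 nm emission ratio (340 nm excitation); activity = 100% − compound ratio/vehicle ratio, compared with rosiglitazone.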

[2] = target: T2, CYP 2C19 (Homo sapiens, UniProt P33261); assay: CYP (cytochrome P450)-suppressing effect, BD GENTEST kit; assay type: in vitro ADME
T2 construct: purchased BD GENTEST 459400
Procedure: (§1) To evaluate the CYP (cytochrome P450)-suppressing activity of the compounds prepared in the examples of the invention, the following experiment was performed.
(§2) The analysis of CYP1A2, 2C19, and 3A4 suppressing activity was performed by using a BD GENTEST (459100, 459400, and 459500) kit, and the analysis of CYP 2C9- and 2D6-suppressing activity was performed by using an Invitrogen (P2861 and P2862) kit.
(§3) When the BD GENTEST kit was used, the compounds of the present invention were diluted in acetonitrile at the final concentration of 50×. The NADPH-Cofactor mix was prepared by diluting the Cofactor, G6PDH, and control protein provided by the kit in DW according to the instructed concentration. 4 μL of the compound of the example (50×) was mixed with 96 μL of NADPH-Cofactor mix in a 96-well plate, followed by pre-incubation in a 37° C. incubator for 10 minutes.
(§4) The enzyme/substrate mixture was diluted in the buffer (0.5 M potassium phosphate, pH 7.4) provided by the kit according to the instructed concentration. Each CYP450 enzyme substrate was diluted in DW at a desired concentration respectively according to the corresponding types of CYP450. 100 μL of the enzyme/substrate mixture was loaded in the plate when the pre-incubation had been completed, followed by reaction in a 37° C. incubator for 15 minutes (1A2) and 30 minutes (3A4 and 2C19). Upon completion of the reaction, the mixture was transferred to a white plate, and the fluorescent wavelength was measured with a microplate reader (1A2, 2C19 excitation 410 nm, emission 460 nm; 3A4, excitation 409 nm, emission 530 nm).
(§5) The test results were calculated by the following formula:
(§6) (1−(fluorescence value of the test material/fluorescence value of the vehicle))×100%.

[3] = target: T3, CYP 3A4 (Homo sapiens, UniProt P08684); assay: as above; assay type: in vitro ADME
T3 construct: purchased BD GENTEST 459500
Procedure: as §1, §2, §3, §4, §5, §6

[4] = target: T4, CYP1A2 (Homo sapiens, UniProt P05177); assay: as above; assay type: in vitro ADME
T4 construct: purchased BD GENTEST 459100
T4 sequence (P05177 1-516): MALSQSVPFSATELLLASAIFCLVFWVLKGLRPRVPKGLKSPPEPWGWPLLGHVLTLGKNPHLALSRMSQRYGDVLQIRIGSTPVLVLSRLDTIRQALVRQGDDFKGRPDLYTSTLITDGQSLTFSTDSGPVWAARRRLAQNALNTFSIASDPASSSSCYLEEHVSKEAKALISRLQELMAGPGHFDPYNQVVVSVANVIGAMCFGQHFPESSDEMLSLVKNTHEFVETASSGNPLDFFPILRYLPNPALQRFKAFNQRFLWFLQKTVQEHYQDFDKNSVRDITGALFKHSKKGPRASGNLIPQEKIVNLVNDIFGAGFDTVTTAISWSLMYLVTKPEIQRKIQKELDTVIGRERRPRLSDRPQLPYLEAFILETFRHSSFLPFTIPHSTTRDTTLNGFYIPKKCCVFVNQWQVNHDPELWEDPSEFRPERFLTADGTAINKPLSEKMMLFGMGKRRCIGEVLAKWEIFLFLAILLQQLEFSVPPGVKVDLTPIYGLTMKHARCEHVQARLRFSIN
Procedure: as §1, §2, §3, §4, §5, §6

[5] = target: T5, CYP 2C9 (Homo sapiens, UniProt P11712); assay: CYP (cytochrome P450)-suppressing effect, Invitrogen Vivid kit; assay type: in vitro ADME
T5 construct: purchased Invitrogen P2861
Procedure: as §1, §2
(§7) When the Invitrogen kit was used, the compounds of the present invention were diluted in Vivid CYP450 reaction buffer (1×) at the final concentration of 2.5×. The P450 BACULOSOMES sample and Regeneration system (100×) were diluted in Vivid CYP450 reaction buffer (1×) at different proper concentrations. 80 μL of the compound of the invention (2.5×) and […] of the diluted P450 BACULOSOMES sample mixture were mixed in a U-bottom 96-well plate, followed by pre-incubation for 10 minutes. Vivid CYP450 Substrate and NADP+ (100×) were diluted in Vivid CYP450 reaction buffer (1×) at a desired concentration, respectively, according to their corresponding types of CYP450 and substrates. 20 μL of Substrate-NADP+ mix was loaded in the plate when the pre-incubation had been completed, followed by reaction for 1 hour. Upon completion of the reaction, the reaction mixture was transferred in a white plate and fluorescent wavelength was measured with a microplate reader (2C9 excitation 415 nm, emission 460 nm, 2D6 excitation 400 nm, emission 502 nm).
as §5, §6

[6] = target: T6, CYP 2D6 (Homo sapiens, UniProt P10635); assay: as above; assay type: in vitro ADME
T6 construct: purchased Invitrogen P2862
Procedure: as §1, §2, §7, §5, §6

[7] = system: CYP isozymes 1A2, 2C9, 2C19, and 2D6; assay: CYP suppression compared with comparative examples (Table 3); assay type: in vitro ADME; conditions: result in words
Procedure: as §1, §2, §7, §3, §4, §5, §6

T2 sequence (P33261 whole entry): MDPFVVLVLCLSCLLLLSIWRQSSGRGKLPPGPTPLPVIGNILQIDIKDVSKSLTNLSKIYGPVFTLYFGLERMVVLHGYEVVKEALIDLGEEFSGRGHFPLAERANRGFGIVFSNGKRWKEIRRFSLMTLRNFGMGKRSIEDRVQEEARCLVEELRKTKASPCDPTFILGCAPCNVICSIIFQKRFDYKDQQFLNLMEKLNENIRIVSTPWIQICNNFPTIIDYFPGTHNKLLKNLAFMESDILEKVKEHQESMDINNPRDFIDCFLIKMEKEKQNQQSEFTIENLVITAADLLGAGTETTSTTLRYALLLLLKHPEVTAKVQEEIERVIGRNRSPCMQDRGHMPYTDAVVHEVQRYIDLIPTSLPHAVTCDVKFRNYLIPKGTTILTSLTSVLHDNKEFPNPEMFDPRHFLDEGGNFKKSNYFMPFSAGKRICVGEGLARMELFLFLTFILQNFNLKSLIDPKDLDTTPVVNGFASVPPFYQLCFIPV
T5 sequence (P11712 whole entry): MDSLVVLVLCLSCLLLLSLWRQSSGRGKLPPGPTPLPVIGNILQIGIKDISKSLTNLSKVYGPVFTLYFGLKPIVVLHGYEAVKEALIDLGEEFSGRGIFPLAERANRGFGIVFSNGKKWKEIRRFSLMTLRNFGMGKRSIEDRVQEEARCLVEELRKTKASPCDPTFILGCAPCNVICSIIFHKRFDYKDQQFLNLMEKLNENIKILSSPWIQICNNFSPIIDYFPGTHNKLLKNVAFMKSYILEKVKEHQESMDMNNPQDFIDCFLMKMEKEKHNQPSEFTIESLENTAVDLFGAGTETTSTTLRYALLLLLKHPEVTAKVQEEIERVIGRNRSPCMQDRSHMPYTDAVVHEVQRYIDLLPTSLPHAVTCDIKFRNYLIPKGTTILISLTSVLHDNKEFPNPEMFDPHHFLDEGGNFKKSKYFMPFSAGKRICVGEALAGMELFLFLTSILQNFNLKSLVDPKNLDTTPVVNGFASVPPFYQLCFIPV
T3 sequence (P08684 whole entry): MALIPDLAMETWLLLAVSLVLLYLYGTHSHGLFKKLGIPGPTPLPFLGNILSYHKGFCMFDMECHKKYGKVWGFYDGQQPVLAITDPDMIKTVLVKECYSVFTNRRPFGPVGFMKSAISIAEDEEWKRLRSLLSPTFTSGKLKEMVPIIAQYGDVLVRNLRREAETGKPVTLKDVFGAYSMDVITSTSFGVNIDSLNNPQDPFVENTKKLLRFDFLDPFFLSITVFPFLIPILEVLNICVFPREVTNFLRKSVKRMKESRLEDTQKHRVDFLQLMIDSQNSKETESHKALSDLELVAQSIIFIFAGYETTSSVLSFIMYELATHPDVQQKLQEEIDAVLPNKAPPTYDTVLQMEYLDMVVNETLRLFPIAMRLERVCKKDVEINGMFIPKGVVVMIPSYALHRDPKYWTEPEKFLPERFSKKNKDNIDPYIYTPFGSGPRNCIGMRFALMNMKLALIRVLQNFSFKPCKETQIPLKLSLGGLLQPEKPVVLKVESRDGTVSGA
T6 sequence (P10635 whole entry): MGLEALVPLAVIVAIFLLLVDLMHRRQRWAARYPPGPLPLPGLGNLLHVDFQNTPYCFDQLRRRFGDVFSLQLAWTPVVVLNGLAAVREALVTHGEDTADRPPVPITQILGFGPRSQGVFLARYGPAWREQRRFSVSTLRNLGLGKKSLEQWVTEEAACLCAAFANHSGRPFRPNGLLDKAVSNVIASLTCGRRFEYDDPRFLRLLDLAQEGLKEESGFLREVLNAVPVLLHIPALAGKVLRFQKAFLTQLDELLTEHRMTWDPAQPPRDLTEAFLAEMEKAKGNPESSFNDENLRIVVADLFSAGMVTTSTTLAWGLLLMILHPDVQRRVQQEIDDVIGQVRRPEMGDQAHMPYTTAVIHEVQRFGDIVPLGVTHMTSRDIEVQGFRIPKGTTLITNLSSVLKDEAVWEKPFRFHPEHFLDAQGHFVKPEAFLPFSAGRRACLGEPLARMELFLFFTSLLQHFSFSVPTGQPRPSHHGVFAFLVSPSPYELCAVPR

SMILES | Binding assay (1 μLM) [1] | CYP(10 μL, %) 2C19 [2] | CYP(10 μL, %) 3A4 [3] | CYP(10 μL, %) 1A2 [4] | CYP(10 μL, %) 2C9 [5] | CYP(10 μL, %) 2D6 [6] | suppression of CYP isozymes 1A2, 2C9, 2C19, and 2D6 compared with SR1664 and SR1824 [7]
C[C@H](NC(=O)c1ccc2c(c1)CCCN2Cc1cccc(-c2ccccc2C(=O)O)c1)c1ccc(C#N)cc1 [Example 118, (S)-3′-((6-((1-(4-cyanophenyl)ethyl)carbamoyl)-3,4-dihydroquinoline-1(2H)-yl)methyl)-[1,1′-biphenyl]-2-carboxylic acid] | + | 74.03% | 71.21% | 101.50% | 52.02% | 94.83% | less than the compounds of the comparative examples; also recorded: less strongly than the compounds of the Comparative Examples
C[C@H](NC(=O)c1ccc2c(c1)OCCN2Cc1ccc(-c2ccccc2C(N)=O)cc1)c1ccc2ccccc2c1 [Example 96, (S)-4-((2′-carbamoyl-[1,1′-biphenyl]-4-yl)methyl)-N-(1-(naphthalene-2-yl)ethyl)-3,4-dihydro-2H-benzo[b][1,4]oxazine-7-carboxamide] | +++ | 52.35% | 98.04% | 92.41% | 57.63% | 98.66% | less than the compounds of the comparative examples; also recorded: less strongly than the compounds of the Comparative Examples
C[C@H](NC(=O)c1ccc2c(c1)CCCN2Cc1ccc(-c2ccccc2C(N)=O)cc1)c1ccc2ccccc2c1 [Example 44, (S)-1-((2′-carbamoyl-[1,1′-biphenyl]-4-yl)methyl)-N-(1-(naphthalene-2-yl)ethyl)-1,2,3,4-tetrahydroquinoline-6-carboxamide] | +++ | 59.55% | 70.42% | 94.56% | 56.40% | 97.07% | less than the compounds of the comparative examples; also recorded: less strongly than the compounds of the Comparative Examples
C[C@H](NC(=O)c1ccc2c(c1)CCCN2Cc1ccc(-c2ccccc2C(N)=O)cc1)c1ccc(F)cc1 [Example 36, (S)-1-((2′-carbamoyl-[1,1′-biphenyl]-4-yl)methyl)-N-(1-(4-fluorophenyl)ethyl)-1,2,3,4-tetrahydroquinoline-6-carboxamide] | +++ | 52.68% | 58.18% | 98.84% | 51.03% | 75.73% | less than the compounds of the comparative examples; also recorded: less strongly than the compounds of the Comparative Examples
C[C@H](NC(=O)c1ccc2c(c1)OCCN2Cc1ccc(-c2ccccc2C(=O)O)cc1)c1ccc([N+](=O)[O-])cc1 [Example 60, (S)-4′-((7-((1-(4-nitrophenyl)ethyl)carbamoyl)-2H-benzo[b][1,4]oxazine-4(3H)-yl)methyl)-[1,1′-biphenyl]-2-carboxylic acid] | ++ | 69.60% | 70.64% | 100.63% | 80.25% | 62.27% | less than the compounds of the comparative examples; also recorded: less strongly than the compounds of the Comparative Examples
Cc1c(C)n(Cc2ccc(-c3ccccc3C(=O)O)cc2)c2ccc(C(=O)NC(C)c3ccc(Br)cc3)cc12 (stereo not drawn) [2 (SR1824), SR1824, reference compound] | – | 32.45% | 71.88% | 64.12% | 6.43% | 68.34% | –
C[C@H](NC(=O)c1ccc2c(c1)CCCN2Cc1cccc(-c2ccccc2C(N)=O)c1)c1ccc([N+](=O)[O-])cc1 [Example 123, (S)-1-((2′-carbamoyl-[1,1′-biphenyl]-3-yl)methyl)-N-(1-(4-nitrophenyl)ethyl)-1,2,3,4-tetrahydroquinoline-6-carboxamide] | +++ | 58.85% | 52.65% | 102.45% | 59.36% | 82.48% | less than the compounds of the comparative examples; also recorded: less strongly than the compounds of the Comparative Examples
C[C@H](NC(=O)c1ccc2c(c1)CCCN2Cc1ccc(-c2ccccc2C(N)=O)cc1F)c1ccc([N+](=O)[O-])cc1 [Example 113, (S)-1-((2′-carbamoyl-3-fluoro-[1,1′-biphenyl]-4-yl)methyl)-N-(1-(4-nitrophenyl)ethyl)-1,2,3,4-tetrahydroquinoline-6-carboxamide] | ++ | 54.70% | 85.01% | 97.27% | 67.73% | 78.65% | less than the compounds of the comparative examples; also recorded: less strongly than the compounds of the Comparative Examples
